Test results from patent publication US20180282819A1, “Targeting the Histone Pathway to Detect and Overcome Anthracyclin Resistance” (ONTARIO INSTITUTE FOR CANCER RESEARCH (OICR), priority 2015, published 2018).

What was measured:
Type in all cases: cell-based, human
[1] = test system: 231 EpiR (epirubicin-resistant MDA-MB-231 cells); test: HDAC inhibitor cytotoxicity, CellTiter-Glo viability; details: for IC50: 72 h, CellTiter-Glo, in the presence of selection dose of epirubicin (25 nM)
Description: (§1) All inhibitors were provided by the Drug Discovery group at the Ontario Institute for Cancer Research (OICR, Toronto, Canada). Cells were seeded at 1000-1500 cells/well into 384-well plates (Greiner, Mississauga, Canada). […] After 72 h, the effects of inhibitors were determined using CellTiter-Glo Luminescent Cell Viability Assay (Promega, Madison, USA) and the Wallac EnVision 2104 Multilabel Reader (Perkin-Elmer, Woodbridge, Canada). Raw data were normalized to negative (media) and positive (20 μM staurosporine) controls and analyzed in GraphPad Prism5.

[2] = test system: 231 Nat (native MDA-MB-231 cells); test: as above
Description: as §1

[3] = test system: MCF7 EpiR (epirubicin-resistant MCF7 cells); test: as above; details: for IC50: 72 h, CellTiter-Glo, in the presence of selection dose of epirubicin (30 nM)
Description: as §1

[4] = test system: MCF7 Nat (native MCF7 cells); test: as above
Description: as §1

[5] = test system: SKBR3 EpiR (epirubicin-resistant SKBR3 cells); test: as above; details: for IC50: 72 h, CellTiter-Glo, in the presence of selection dose of epirubicin (15 nM)
Description: as §1

[6] = test system: SKBR3 Nat (native SKBR3 cells); test: as above
Description: as §1

[7] = test system: ZR75 EpiR (epirubicin-resistant ZR-75-1 cells); test: as above; details: 72 h, in the presence of selection dose of epirubicin (10 nM)
Description: as §1

[8] = test system: ZR75 Nat (native ZR-75-1 cells); test: as above
Description: as §1

[9] = test system: MCF7 epirubicin-resistant cells; test: Cross resistance, CCK-8 viability; details: MCF7, 72 h
Description: (§2) Native and resistant cells were exposed to drug concentrations ranging from 0.3 nM to 3000 nM. Cell viability was determined 72 h later by CCK-8 assay. A) Percent of live cells relative to DMSO control was plotted against epirubicin concentration. Black=native cells, magenta=resistant cells. B) IC50 values in nM concentration±standard deviation. Resistance factor is shown in parenthesis and represents resistant IC50/native IC50.
(§3) Breast cancer cell lines (MDA-MB-231, MCF7, ZR-75-1, SKBR3) were purchased from ATCC and cultured in DMEM (except SKBR3, cultured in RPMI) supplemented with 10% heat-inactivated fetal bovine serum and 1% L-glutamine (Gibco, Burlington, Canada). Epirubicin-resistant cell lines were generated by exposing native cells to increasing concentrations of epirubicin with an initial concentration set at 0.5 nM. Resistance was defined when IC50 value superseded the IC50 value of the corresponding native cell line, and resistant cells could not tolerate further increase in drug concentration. Drug resistance and cross resistance were determined by exposing cells to drug concentrations ranging from 0.3-3000 nM for 72 h. Cell viability was determined by Cell Counting Kit-8 (CCK-8, Dojindo, Cedarlane, Burlington, Canada). IC50 were calculated in GraphPad Prism5.

[10] = test system: MDA-MB-231 epirubicin-resistant cells; test: Cross resistance, CCK-8 viability; details: MDA-MB-231, 72 h
Description: as §2, §3

[11] = test system: SKBR3 epirubicin-resistant cells; test: Cross resistance, CCK-8 viability; details: SKBR3, 72 h
Description: as §2, §3

[12] = test system: ZR-75-1 epirubicin-resistant cells; test: Cross resistance, CCK-8 viability; details: ZR-75-1, 72 h
Description: as §2, §3

[13] = test system: all four epirubicin-resistant cell lines (MDA-MB-231, MCF7, SKBR3, ZR-75-1); test: Drug resistance and cross resistance, CCK-8 viability; details: 72 h
Description: as §2, §3

Compound	IC50 [1] [nM]	IC50 [3] [nM]	IC50 [5] [nM]	IC50 [7] [nM]	IC50 ([2]; Homo sapiens, MDA-MB-231, 72 h) [nM]	IC50 ([4]; Homo sapiens, MCF7, 72 h) [nM]	IC50 ([6]; Homo sapiens, SK-BR-3, 72 h) [nM]	IC50 ([8]; Homo sapiens, ZR75, 72 h) [nM]	further results
CCC(=O)CCCCC[C@@H]1NC(=O)[C@H]2CCCCN2C(=O)[C@H]([C@@H](C)CC)NC(=O)[C@H](Cc2cn(OC)c3ccccc23)NC1=O	110	110	2210	250					IC50 ([2]; 72 h): 230 nM; IC50 ([4]; 72 h): 70 nM; IC50 ([6]; 72 h): 170 nM; IC50 ([8]; 72 h): 210 nM
CN(C)Cc1c(C(=O)NCCOc2ccc(C(=O)NO)cc2)oc2ccccc12 [Abexinostat]	120	90	2250	160	270	110	210	140	
O=C(/C=C/c1cccc(S(=O)(=O)Nc2ccccc2)c1)NO [Belinostat]	180	200	150	460	500	250	210	360	
CC(C)(C)OC(=O)Nc1ccc(-c2cc(C(=O)NCCCCCCC(=O)NO)no2)cc1 [CAY10603]	820	380	1030	750					IC50 ([2]; 72 h): 1270 nM; cytotoxicity for epirubicin-resistant cells compared to native cell lines ([3]; MCF7, with epirubicin): more cytotoxic; IC50 ([4]; 72 h): 610 nM; IC50 ([6]; 72 h): 440 nM; IC50 ([8]; 72 h): 980 nM
O=C(/C=C/c1cccc(C(=O)NO)c1)NO [CBHA]	1750	3580	1030	2250					IC50 ([2]; 72 h): 2390 nM; IC50 ([4]; 72 h): 1180 nM; IC50 ([6]; 72 h): 1450 nM; IC50 ([8]; 72 h): 2940 nM
O=C(/C=C/c1ccc(CN(CCO)CCc2c[nH]c3ccccc23)cc1)NO [Dacinostat]	20	10	60	20	40	20	20	20	
CCN(CC)Cc1ccc2cc(COC(=O)Nc3ccc(C(=O)NO)cc3)ccc2c1 [Givinostat]	160	80	2740	180	260	100	220	170	
Nc1ccccc1NC(=O)c1ccc(CNc2nccc(-c3cccnc3)n2)cc1 [Mocetinostat]	430	410	3690	430	850	320	1000	350	
Cc1[nH]c2ccccc2c1CCNCc1ccc(/C=C/C(=O)NO)cc1 [Panobinostat]	10	10	70	20	20	10	20	10	
CCCCc1nc2cc(/C=C/C(=O)NO)ccc2n1CCN(CC)CC [Pracinostat]	180	120	920	230	540	160	260	150	cytotoxicity for epirubicin-resistant cells compared to native cell lines ([1]; MDA-MB-231, with epirubicin): more cytotoxic
Cn1cc(CNCC2CCN(c3ncc(C(=O)NO)cn3)CC2)c2ccccc21 [Quisinostat]	10	10	220	10	10	10	10	10	
CCc1c2c(nc3ccc(O)cc13)-c1cc3c(c(=O)n1C2)COC(=O)[C@]3(O)CC [SN-38]									cross-resistance of epirubicin-resistant cells [9]: tolerated only small increases in SN-38 concentrations; cross-resistance of epirubicin-resistant cells [10]: cross-resistant; cross-resistance of epirubicin-resistant cells [11]: cross-resistant; cross-resistance of epirubicin-resistant cells [12]: tolerated only small increases in SN-38 concentrations
O=C(CCCCCN1C(=O)c2cccc3cccc(c23)C1=O)NO [Scriptaid]	1300	720	940	1230	3810	1340	1250	1660	
CC(/C=C/C(=O)NO)=C\[C@@H](C)C(=O)c1ccc(N(C)C)cc1 [Trichostatin A]	150	500	1240	2280					IC50 ([2]; 72 h): 330 nM; IC50 ([6]; 72 h): 1520 nM; IC50 ([8]; 72 h): 1830 nM
N.N.O=C([O-])C1(C(=O)[O-])CCC1.[Pt+2] [carboplatin]									cross-resistance of epirubicin-resistant cell lines [13]: None of the cell lines were cross-resistant
CC(=O)O[C@@]12CO[C@@H]1C[C@H](O)[C@@]1(C)C(=O)[C@H](O)C3=C(C)[C@@H](OC(=O)[C@H](O)[C@@H](NC(=O)OC(C)(C)C)c4ccccc4)C[C@@](O)([C@@H](OC(=O)c4ccccc4)[C@H]21)C3(C)C [docetaxel]									cross-resistance of epirubicin-resistant cells [9]: not taxane-resistant; cross-resistance of epirubicin-resistant cells [10]: not taxane-resistant; cross-resistance of epirubicin-resistant cells [11]: cross-resistant; cross-resistance of epirubicin-resistant cells [12]: not taxane-resistant
COc1cccc2c1C(=O)c1c(O)c3c(c(O)c1C2=O)C[C@@](O)(C(=O)CO)C[C@@H]3O[C@H]1C[C@H](N)[C@H](O)[C@H](C)O1 [doxorubicin]									cross-resistance of epirubicin-resistant cell lines [13]: resistant
CC(=O)O[C@H]1C(=O)[C@@]2(C)[C@H]([C@H](OC(=O)c3ccccc3)[C@]3(O)C[C@H](OC(=O)[C@H](O)[C@@H](NC(=O)c4ccccc4)c4ccccc4)C(C)=C1C3(C)C)[C@]1(OC(C)=O)CO[C@@H]1C[C@@H]2O [paclitaxel]									cross-resistance of epirubicin-resistant cells [9]: not taxane-resistant; cross-resistance of epirubicin-resistant cells [10]: not taxane-resistant; cross-resistance of epirubicin-resistant cells [11]: cross-resistant; cross-resistance of epirubicin-resistant cells [12]: not taxane-resistant
Oxamflatin	290	250	690	1200					IC50 ([2]; 72 h): 590 nM; IC50 ([4]; 72 h): 620 nM; cytotoxicity for epirubicin-resistant cells compared to native cell lines ([5]; SKBR3, with epirubicin): more cytotoxic; IC50 ([6]; 72 h): 1280 nM; IC50 ([8]; 72 h): 680 nM
